Source: patent US8871929B2, “Fused-imidazoyl compounds useful as antimicrobial agents” (Merck Sharp & Dohme Corp., priority 2010, dated 2014)
In brackets after ≈: the same amount, converted by molar mass.

Tested on: Staphylococcus aureus ATCC29213
Test: Susceptibility testing (MIC determination), broth microdilution
Assay type: cell-based
Conditions: Mueller Hinton broth, 96-well plate, overnight incubation at 35° C., read-out: MIC Staph. aureus ATCC-29213
Experimental: Compounds useful in the method of the invention were investigated for their utility as antimicrobial agents in the following assay. Susceptibility testing (MIC determinations) was performed using the standard broth microdilution methodology precisely as described in the Clinical Laboratory Standards Institute Document M7-A6; Methods for Dilution Antimicrobial Susceptibility Tests for Bacteria That Grow Aerobically; […] To perform the test, a series of 0.1 ml media in a 96-well plate is prepared with Mueller Hinton broth to which various concentrations of the test compound are added. The media are then inoculated with a standardized suspension of the test organism, Staphylococcus aureus ATCC29213. After overnight incubation at 35° C., the tests are examined and the minimal inhibitory concentration (MIC) is determined. MIC is defined as the lowest concentration of an antimicrobial agent that prevents visible growth of a microorganism in the broth microdilution susceptibility test

- MIC: 0.125 µg/mL (≈ 0.2 µM)
Structure (SMILES): COC(=O)c1ccn2c(NCC(=O)N3CCN(c4c(Cl)cncc4Cl)CC3)c(-c3ccc(N4CCOCC4)cc3)nc2c1 [Compound 84]
